Results: patent US20250041298A1, “CDK4 INHIBITOR FOR THE TREATMENT OF CANCER” (Pfizer Inc., priority 2021, published 2025)

Assay: Phase 1/1b clinical trial: safety (DLTs, treatment-emergent adverse events)
Assay type: in vivo, human
Procedure: As used herein, “dose limiting toxicity” (DLT) refers to the dosage of PF-07220060 that is contraindicative of a further increase in dosage.
An ongoing open-label, nonrandomized, dose-finding Phase 1/1b Study investigating the safety, tolerability, PK, and PD of PF-07220060 administered as a single agent and when administered in combination with endocrine therapy.
Adverse events of the patients dosed with PF-07220060 in the Phase 1/1b clinical trial were evaluated using the National Cancer Institute Common Terminology Criteria for Adverse Events (NCI CTCAE) version 4.03.

[1] = 66 participants dosed in Part 1A, 1B, 1C and 1D
[2] = Part 1D, single agent 400 mg BID food cohort
[3] = Part 1D, single agent 400 mg BID food cohort, 6 participants
[4] = across all dose levels, by label
[5] = across all dose levels, Part 1A
[6] = any grade, all dose levels, Part 1A, 1B, 1C, by label
[7] = any grade, all dose levels, Part 1A, 1C, by label
[8] = overall, 66 participants dosed in Part 1

## CC(C)n1c(C(C)(C)O)nc2c(F)cc(-c3nc(N[C@@H]4CCOC[C@H]4O)ncc3Cl)cc21 [PF-07220060, 1,5-anhydro-3-({5-chloro-4-[4-fluoro-2-(2-hydroxypropan-2-yl)-1-(propan-2-yl)-1H-benzimidazol-6-yl]pyrimidin-2-yl}amino)-2,3-dideoxy-D-threo-pentitol]
66 participants dosed in Part 1
  participants with any treatment-related TEAE, %: 81.8%
[1]
  number of all-causality TEAEs: 375
  participants with all-causality TEAEs, %: 89.4%
Part 1A
  diarrhoea, Grade 3 treatment-related TEAE: 5.9%
  thrombocytopenia, Grade 3 treatment-related TEAE: 5.9%
Part 1A (single agent, 34), 1B (13), 1C (13), by label
  participants with treatment-related TEAE, %: 79.4%
Part 1A, 400 mg BID group
  participants with Grade 5 all-causality TEAE (respiratory failure; unrelated to study drug): One
Part 1A, 1B, 1C, by label
  Grade 4 / Grade 5 all-causality TEAEs: No Grade 4 TEAEs were reported
  Grade 4 / Grade 5 treatment-related TEAEs: no Grade 4 or Grade 5 treatment-related TEAEs reported
  anaemia, Grade 3 treatment-related TEAE: 5.9%
  leukopenia, Grade 3 treatment-related TEAE: 5.9%
  neutropenia, Grade 3 treatment-related TEAE: 14.7%
  participants with Grade 3 treatment-related TEAEs, %: 26.5%
[2]
  Grade 3, 4 or 5 treatment-related TEAEs: No Grade 3, 4 nor 5 treatment-related TEAEs were reported
  Grade 3 or 5 TEAEs: No Grade 3 or 5 TEAEs were reported
  diarrhoea, all-causality TEAE: 50.0%
  diarrhoea, treatment-related TEAE: 50.0%
  leukopenia, all-causality TEAE: 50.0%
  leukopenia, treatment-related TEAE: 50.0%
  neutropenia, all-causality TEAE: 50.0%
  neutropenia, treatment-related TEAE: 50.0%
  participants with Grade 4 all-causality TEAE (respiratory failure): One
[3]
  participants with TEAEs, %: 66.7%
  participants with treatment-related TEAEs, %: 66.7%
[4]
  anaemia, Grade 3 or higher (1A) / Grade 3 (1B, 1C) all-causality TEAE: 5.9%
  leukopenia, Grade 3 or higher (1A) / Grade 3 (1B, 1C) all-causality TEAE: 5.9%
  neutropenia, Grade 3 or higher (1A) / Grade 3 (1B, 1C) all-causality TEAE: 14.7%
  number of Grade 3 or higher (Part 1A) / Grade 3 (Part 1C) all-causality TEAEs: 15
[5]
  COVID-19, Grade 3 or higher all-causality TEAE: 5.9%
  aspartate aminotransferase increased, Grade 3 or higher all-causality TEAE: 5.9%
  diarrhoea, Grade 3 or higher all-causality TEAE: 5.9%
  syncope, Grade 3 or higher all-causality TEAE: 5.9%
  thrombocytopenia, Grade 3 or higher all-causality TEAE: 5.9%
All dose levels, Part 1A (single agent, 34), 1B (13), 1C (13), by label
  participants with all-causality TEAEs, %: 94.1%
Any grade, all dose levels, Part 1A
  aspartate aminotransferase increased, all-causality TEAE: 20.6%
[6]
  anaemia, all-causality TEAE: 35.3%
  diarrhoea, all-causality TEAE: 35.3%
  diarrhoea, treatment-related TEAE: 23.5%
  fatigue, treatment-related TEAE: 11.8%
  leukopenia, all-causality TEAE: 35.3%
  nausea, all-causality TEAE: 29.4%
  nausea, treatment-related TEAE: 26.5%
  neutropenia, all-causality TEAE: 41.2%
  neutropenia, treatment-related TEAE: 41.2%
  vomiting, all-causality TEAE: 20.6%
[7]
  anaemia, treatment-related TEAE: 29.4%
  leukopenia, treatment-related TEAE: 29.4%
  thrombocytopenia, treatment-related TEAE: 20.6%
  vomiting, treatment-related TEAE: 14.7%
Of the 55 evaluable participants, all cohorts, as of Sep. 2, 2022
  participants who experienced DLTs, %: 7.3%
[8]
  anemia, treatment-related TEAE: 21.2%
  diarrhea, treatment-related TEAE: 33.3%
  leukopenia, treatment-related TEAE: 30.3%
  nausea, treatment-related TEAE: 27.3%
  neutropenia, treatment-related TEAE: 40.9%
Single agent 200 mg BID cohort
  participants with DLT of Grade 3 neutropenia: One
Single agent 500 mg BID cohort
  participants with DLT of Grade 3 thrombocytopenia: Two
